US9371527B2, “Compositions and methods related to protein displacement therapy for myotonic distrophy” (University of Rochester, priority 2006, dated 2016)
“Also recorded” adds a separate entry of the source.

How the values were obtained:
[1] = test system: nuclear foci containing CUG^exp RNA and MBNL1 protein; experiment: FISH and immunofluorescence of ribonuclear inclusions after ClC-1 antisense morpholino; format: in vivo, HSA^LR mice; conditions: TA muscle, 3 weeks after injection; listed as antisense morpholino
[2] = Tissue uptake and distribution of carboxyfluorescein-labeled antisense morpholino; format: in vivo, HSA^LR mice; conditions: for subcellular localization of antisense morpholino: muscle fibers, TA 3 weeks / FDB day 5
Protocol: Antisense morpholino targeting the 3′ splice junction of ClC-1 exon 7a was injected into foot pad muscle of HSA^LR mice under general anesthesia. Uptake into muscle fibers was enhanced by in vivo electroporation. The morpholino was tagged with fluorescein. 4 days later, individual FDB muscle fibers were isolated. […] As a control, the opposite footpad was injected with morpholino having the inverted sequence. […] The peak current density in HSA^LR mice (center panel) is much lower than in wild-type mice (left panel). However, after morpholino treatment in HSA^LR mice (right panel), the current density is restored to levels that are similar to wild-type mice. […] The antisense morpholino (closed squares) restores chloride current density to normal levels (open circles or triangles).
The morpholino was complementary to the 3′ splice site of ClC-1 pre-mRNA. Muscle fibers are outlined by wheat germ agglutinin (wga) and nuclei are highlighted by DAPI. FIGS. 24D and 24 E show brightfield (D) and fluorescence (E) images of a single FDB fiber showing preferential nuclear localization of the antisense morpholino (post injection day 5). […] Bars=20 μM.
The strategy for suppressing the inclusion of exon 7a is diagrammed in FIG. 23A. The morpholino AONs were complementary to the 3′ or 5′ splice sites of exon 7a in the ClC-1 pre-mRNA (FIG. 23B). To examine tissue uptake, a carboxyfluorescein-labeled morpholino was injected into tibialis anterior (TA) muscle of HSA^LR mice. […] To improve uptake and distribution of AON, voltage pulses were used to electroporate muscle fibers after the AON injection.
HSA^LR (Mankodi, A., et al. (2000) Science 289:1769-1773) or Mbnl1^ΔE3/ΔE3 mice (Kanadia, R. N., et al. (2003) Science 302:1978-1980) were anesthetized by intraperitoneal injection of 100 mg/kg ketamine, 10 mg/kg xylazine, and 3 mg/kg acepromazine. TA muscle was pretreated by intramuscular injection of bovine hyaluronidase (15 μl, 0.4 U/μl) (Sigma) (McMahon, J. M., et al. (2001) Gene Ther 8:1264-1270). Two hours later, 10 or 20 μg of morpholino in a total volume of 20 μl phosphate buffered saline (PBS) was injected using a 30-gauge needle. TA muscle was then electroporated using electrodes placed parallel to the long axis of the muscle. Electroporation parameters were 100 V/cm, 10 pulses at 1 Hz, and 20 ms duration per pulse. Antisense or control morpholino with inverted sequence was injected into TA muscles of opposite limbs. The determination of which TA received antisense morpholino was randomized, and investigators remained blinded to this assignment until EMG analyses were completed. Other analyses were performed without blinding. For experiments to determine the distribution of injected oligos, the antisense morpholino was labeled with carboxyfluorescein and cryosections of muscle (10 μM) were examined by fluorescence microscopy, with or without fixation in 4% paraformaldehyde. Some sections were co-labeled with TRITC-wheat germ agglutinin (Parsons, S. A., et al. (2003) Mol Cell Biol 23:4331-4343) (50 μg/ml in PBS; Sigma) and 4′,6-diamidino-2-phenylindole (DAPI) to highlight the surface membranes and nuclei of muscle fibers.

ClC-1 exon 7a = experiment: RT-PCR of ClC-1 exon 7a splicing after antisense morpholino, Mbnl1^ΔE3/ΔE3 mice; format: in vivo; conditions: TA muscle, 3 weeks, 20 μg
Protocol: (§1) FIGS. 27A, 27B, 27C, 27D, and 27E show antisense morpholino represses exon 7a inclusion, restores ClC-1 protein expression, and rescues myotonia in Mbnl1^ΔE3/ΔE3 mice. […] Bar=20 μM. […] Mean±s.d.; n=3 per group; **P<0.0001 antisense- versus invert-treated control; ANOVA.
To examine the effects of AON in this model, antisense morpholino or invert control was injected into TA muscle of Mbnl1^ΔE3/ΔE3 mice.
HSA^LR (Mankodi, A., et al. (2000) Science 289:1769-1773) or Mbnl1^ΔE3/ΔE3 mice (Kanadia, R. N., et al. (2003) Science 302:1978-1980) were anesthetized by intraperitoneal injection of 100 mg/kg ketamine, 10 mg/kg xylazine, and 3 mg/kg acepromazine. TA muscle was pretreated by intramuscular injection of bovine hyaluronidase (15 μl, 0.4 U/μl) (Sigma) (McMahon, J. M., et al. (2001) Gene Ther 8:1264-1270). Two hours later, 10 or 20 μg of morpholino in a total volume of 20 μl phosphate buffered saline (PBS) was injected using a 30-gauge needle. TA muscle was then electroporated using electrodes placed parallel to the long axis of the muscle. Electroporation parameters were 100 V/cm, 10 pulses at 1 Hz, and 20 ms duration per pulse. […] For experiments to determine the distribution of injected oligos, the antisense morpholino was labeled with carboxyfluorescein and cryosections of muscle (10 μM) were examined by fluorescence microscopy, with or without fixation in 4% paraformaldehyde. […]

ClC-1 protein = experiment: ClC-1 immunofluorescence, Mbnl1^ΔE3/ΔE3 mice; format: in vivo; conditions: TA muscle, 3 weeks; listed as antisense morpholino
Protocol: as §1
Frozen transverse sections of TA muscle (10 μM) were stained with affinity-purified rabbit polyclonal anti-ClC-1 antibody (1:50; Alpha Diagnostic International) as previously described (Kanadia, R. N., et al. (2006) Proc Natl Acad Sci USA 103:11748-11753). Muscle sections from ClC-1 null mice and WT FVB mice served as negative and positive controls on each slide. Z-plane stacks consisting of 8 images separated by 0.25 μM were captured and deconvolved using Autoquant v9.3 software (Autoquant Imaging). Maximum-projection images were obtained using Metavue software (Universal Imaging Corporation). Exposure time and thresholding were identical for all comparisons of antisense vs. invert controls.

antisense 1: morpholino 5′-CCAGGCACGGTCTGCAACAGAGAAG-3′ targeting the 3′ splice site of ClC-1 exon 7a (all phosphorodiamidate morpholino (PMO))
formation of ribonuclear inclusions (CUG^exp RNA and MBNL1 foci) [1]: did not affect the formation of nuclear foci; also recorded: no effect on the formation of ribonuclear inclusions
fibers showing fluorescein uptake ([2]; FDB fibers, 4 days after foot pad injection + electroporation): Greater than 90%
tissue uptake of antisense morpholino ([2]; TA injection followed by electroporation): throughout the TA muscle
tissue uptake of antisense morpholino ([2]; TA injection without electroporation): limited to the needle track
subcellular localization of antisense morpholino ([2]; listed as AON): accumulate preferentially in the nucleus
subcellular localization of antisense morpholino ([2]; listed as antisense morpholino): localizes preferentially to muscle nuclei
ClC-1 exon 7a inclusion (ClC-1 exon 7a; listed as antisense morpholino): repressed the inclusion of exon 7a
ClC-1 exon 7a inclusion (ClC-1 exon 7a; listed as antisense morpholino 1): reduced inclusion of exon 7a
ClC-1 protein at the sarcolemma (immunofluorescence) (ClC-1 protein): increased the expression of ClC-1 protein at the sarcolemma
